{"source": "paper PMC10448909", "about": "(Cancer Research Communications, 2023)", "key": {"advanced solid tumors [1]": {"test_system": "advanced solid tumors", "settings": "patients with advanced solid tumors; cited from earlier work"}, "MetAP2 [2]": {"test_system": "MetAP2", "experiment": "Met-EF1α pharmacodynamic biomarker in tumor biopsies", "type": "in vivo, human", "settings": "cycle 2, day 1", "source_text": "(§1) Tumor biopsies were collected during the screening period and on cycle 2, day 1. White blood cell (WBC) samples were collected during the screening period, predose on days 1, 2, 8, and 15 of cycle 1 and postdose on days 1 and 15 of cycle 1. In addition, WBC samples were collected predose on days 1 and 15 of cycle 2.\n(§2) No formal significance level was defined for this study and all analyses were considered descriptive."}, "MetAP2 [3]": {"test_system": "MetAP2", "experiment": "Met-EF1α pharmacodynamic biomarker in white blood cells", "type": "in vivo, human", "settings": "12 mg once daily and higher, from cycle 1, day 15 onward; no obvious dose correlation", "source_text": "as §1, §2"}, "advanced solid tumors [4]": {"test_system": "advanced solid tumors", "experiment": "Antitumor activity by RECIST v1.1", "type": "in vivo, human", "protocol": "Efficacy endpoints included best overall response [BOR: complete response (CR), partial response (PR), stable disease (SD), or progressive disease] according to the RECIST v1.1. criteria ([20]), clinical benefit (defined as CR, PR, or SD for ≥12 weeks) and progression-free survival (PFS). PFS was defined as time from first dose to objective disease progression or death, whichever occurred first. CT scans or MRI were performed predose to document the baseline tumor status using the most appropriate criteria for the malignancy type. Target and non-target lesions were selected on the basis of the initial scan. Clinical efficacy was assessed by the investigators according to RECIST v1.1 every two cycles (starting on day 1 of cycle 3).\nFor the efficacy analysis, objective response and clinical benefit were summarized and 95% exact Clopper–Pearson confidence intervals (CI) were estimated ([21]). Kaplan–Meier estimates were calculated for PFS and the CI for the median PFS was calculated according to Brookmeyer and Crowley ([22])."}, "[5]": {"test_system": "human tumor cell xenografts in mice", "parameters": "method as in El Bawab S, personal communication", "settings": "defined by preclinical modeling; ref El Bawab S, personal communication; cited from earlier work"}, "[6]": {"test_system": "patient-derived renal cell carcinoma xenografts", "parameters": "method as in earlier work", "settings": "with sunitinib, cabozantinib, axitinib; Friese-Hamim M, personal communication; cited from earlier work"}, "[7]": {"test_system": "metastatic renal carcinoma", "parameters": "method as in PMID 10561320", "settings": "phase II, patients with metastatic renal carcinoma; cited from earlier work"}, "[8]": {"settings": "cited from earlier work"}, "[9]": {"settings": "cited from earlier work", "remark": "listed apart in the source"}}, "note": "Like-named read-outs stand apart in the source and are kept apart here.", "data": [{"compound": "CO[C@@H](C(=O)N[C@H]1CC[C@@H](OC(=O)C2CCCCC2)CNC1=O)[C@H](O)[C@@H](O)[C@H](O)/C=C/C(C)(C)C", "note": "[LAF389]", "values": [{"measurement": "Objective responses", "setting": "advanced solid tumors [1]", "result": "failed to show any objective responses"}]}, {"compound": "O=C(NCc1cc(F)cc(F)c1)[C@@]1(O)CCN(c2ccc3[nH]ccc3c2)C1=O", "note": "[M8891]", "values": [{"measurement": "Met-EF1α accumulation in tumors", "setting": "MetAP2 [2]; 7 to 35 mg once daily", "result": "tended to increase up to 35 mg once daily in a dose-dependent manner"}, {"measurement": "Met-EF1α levels in tumor", "setting": "MetAP2 [2]; ≥35 mg once daily", "result": "≥ 125", "unit": "μg/mg protein"}, {"measurement": "Pharmacodynamic response in WBCs", "setting": "MetAP2 [3]", "result": "low and variable pharmacodynamic response"}, {"measurement": "Duration of stable disease", "setting": "advanced solid tumors [4]; 7 patients with BOR of SD", "result": "42 to 123", "unit": "days"}, {"measurement": "Objective responses", "setting": "advanced solid tumors [4]; all doses, n = 27", "result": "no objective responses"}, {"measurement": "Target Met-EF1α level expected to be correlated with efficacy", "setting": "[5]", "result": 125, "unit": "μg/mg protein"}, {"measurement": "Antitumor activity in combination with VEGFR-targeted TKIs", "setting": "[6]", "result": "strong and durable antitumor activity"}]}, {"compound": "CO[C@@H]1[C@H](OC(=O)NC(=O)CCl)CC[C@]2(CO2)[C@H]1[C@@]1(C)O[C@@H]1CC=C(C)C", "note": "[TNP-470]", "values": [{"measurement": "Objective responses", "setting": "[7]", "result": "failed to show any significant objective responses"}, {"measurement": "Neurotoxicity in phase I studies", "setting": "[8]", "result": "considerable neurotoxicity"}, {"measurement": "Pharmacokinetic variability in phase I studies", "setting": "[9]", "result": "high pharmacokinetic variability"}]}]}
